Assay results reported in ChEMBL document CHEMBL5528007, “Synthetic GPR40/FFAR1 agonists: An exhaustive survey on the most recent chemical classes and their structure-activity relationships” (Eur J Med Chem, 2024).
Values belong to the compound of their own block, whether it stands above or below them.

What was measured:
[1] = molecular target: T1, Free fatty acid receptor 1 (Homo sapiens, UniProt O14842); assay: Agonist activity at human GPR40 stably expressed in CHO cells assessed as increase in intracellular calcium concentration by FLIPR assay; format: functional, cell-based
T1 sequence (O14842 whole entry): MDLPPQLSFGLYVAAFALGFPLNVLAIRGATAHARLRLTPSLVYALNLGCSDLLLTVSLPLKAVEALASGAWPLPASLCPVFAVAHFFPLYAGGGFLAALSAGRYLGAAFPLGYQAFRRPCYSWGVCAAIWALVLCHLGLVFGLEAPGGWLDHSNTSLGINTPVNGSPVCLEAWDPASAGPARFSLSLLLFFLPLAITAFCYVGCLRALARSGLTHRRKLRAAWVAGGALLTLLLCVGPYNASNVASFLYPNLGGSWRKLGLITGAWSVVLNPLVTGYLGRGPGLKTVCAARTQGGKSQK

[2] = molecular target: T1, Free fatty acid receptor 1; assay: Agonist activity at human recombinant GPR40 stably expressed in HEK293 cells at 0.1 uM incubated for 24 hrs by FLIPR assay relative to control; format: functional, cell-based
[3] = molecular target: T1, Free fatty acid receptor 1; assay: Agonist activity at human recombinant FFA1 stably expressed in CHO cells assessed as increase in calcium flux by Fluo4-AM dye based FLIPR assay; format: functional, cell-based
[4] = molecular target: T1, Free fatty acid receptor 1; assay: Agonist activity at human FFA1 stably expressed in CHO cells at 300 nM by Fluo4-AM dye based intracellular calcium flux FLIPR assay relative to control; format: functional, cell-based
[5] = molecular target: T1, Free fatty acid receptor 1; assay: Agonist activity at human GPR40 expressed in HEK293 cells by Fluo4-AM dye based intracellular calcium flux assay; format: functional, cell-based
[6] = molecular target: T1, Free fatty acid receptor 1; assay: Agonist activity at human FFA1 expressed in CHO cells by Fluo4-AM dye based intracellular calcium flux assay; format: functional, cell-based
[7] = molecular target: T2, Peroxisome proliferator-activated receptor gamma (Homo sapiens) (UniProt P37231); assay: Agonist activity at PPARgamma (unknown origin) assessed as fold increase in calcium by Fluo4-AM dye based intracellular calcium flux assay; format: cell-based; details: filed as agonist
T2 sequence (whole entry): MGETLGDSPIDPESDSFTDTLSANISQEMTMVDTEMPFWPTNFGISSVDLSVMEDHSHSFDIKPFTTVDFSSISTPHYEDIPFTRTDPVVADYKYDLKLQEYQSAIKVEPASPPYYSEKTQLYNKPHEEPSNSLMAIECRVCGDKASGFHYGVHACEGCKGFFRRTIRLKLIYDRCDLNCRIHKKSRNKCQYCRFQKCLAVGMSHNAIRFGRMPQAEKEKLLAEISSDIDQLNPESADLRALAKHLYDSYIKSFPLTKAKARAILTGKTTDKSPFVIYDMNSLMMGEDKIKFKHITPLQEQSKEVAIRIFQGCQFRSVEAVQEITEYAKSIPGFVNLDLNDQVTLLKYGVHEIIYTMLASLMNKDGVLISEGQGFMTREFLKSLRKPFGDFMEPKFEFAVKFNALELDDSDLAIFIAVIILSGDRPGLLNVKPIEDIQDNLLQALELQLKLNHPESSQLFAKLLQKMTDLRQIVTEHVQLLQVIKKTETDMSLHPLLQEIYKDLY

[8] = molecular target: T1, Free fatty acid receptor 1; assay: Agonist activity at human recombinant GPR40 expressed in CHO cells by Fluo4-AM dye based intracellular calcium flux assay relative to control; format: functional, cell-based
[9] = molecular target: GPR40-Galpha16 (Homo sapiens, UniProt O14842+P30679); assay: Agonist activity at human GPR40/Galpha-16 expressed in HEK293 cells by Fluo4-AM dye based intracellular calcium flux assay
Chain of GPR40-Galpha16 (O14842 whole entry): as the sequence (O14842 whole entry) above
Chain of GPR40-Galpha16 (P30679 whole entry): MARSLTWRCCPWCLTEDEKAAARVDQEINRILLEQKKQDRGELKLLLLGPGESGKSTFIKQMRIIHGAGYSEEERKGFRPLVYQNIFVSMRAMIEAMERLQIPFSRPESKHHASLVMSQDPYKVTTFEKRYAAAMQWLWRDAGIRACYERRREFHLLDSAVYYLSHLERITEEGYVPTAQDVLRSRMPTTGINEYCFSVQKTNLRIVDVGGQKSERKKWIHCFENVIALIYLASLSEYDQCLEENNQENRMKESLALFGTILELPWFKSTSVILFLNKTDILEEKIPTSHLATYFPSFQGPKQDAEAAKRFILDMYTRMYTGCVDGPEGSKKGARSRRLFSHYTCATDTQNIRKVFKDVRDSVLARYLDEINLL

[10] = molecular target: T1, Free fatty acid receptor 1; assay: Agonist activity at human […] expressed in HEK293 cells incubated for 40 mins by Fluo4-AM dye based intracellular calcium flux assay; format: functional, cell-based

Compound: Cc1ccc(O[C@H]2CCOC2)cc1-c1cc(COc2ccc(OCC(=O)O)cc2)cc2c1OCC2
- Activity [2]: 1.8%

Compound: CC(C)(CCCCCCCCCCC(C)(C)CC(=O)O)CC(=O)O
- EC50 [5]: 1220 nM

Compound: O=C(O)C[C@@H](c1ccc(O[C@@H]2CCc3c2ccc(C(F)(F)F)c3CN2CCCCC2)cc1)c1ccon1
- Activity [8]: 16.5%

Compound: O=C(O)CC1COc2cc(OCc3cccc(O/C=C/Oc4ccccc4)c3)ccc21 (configuration not stated)
- Activity ([4]; filed as agonist): 52.7%

Compound: Cc1ccc(O[C@H]2CCOC2)cc1-c1cc(COc2ccc(OCC(=O)O)cc2)cc2c1CCC2
- Activity ([2]; filed as agonist): 133%

Compound: O=C(O)C[C@@H](c1ccc(O[C@@H]2CCc3c2ccc(C(F)(F)F)c3CN2CCC(F)CC2)cc1)c1ccon1
- Activity ([8]; filed as agonist): 45.2%

Compound: Cc1cc(O[C@H]2CCOC2)cc(C)c1-c1cccc2c1CC[C@H]2Oc1ccc(OCC(=O)O)cc1
- Activity ([2]; filed as agonist): 47%

Compound: CC1CCN(Cc2c(C(F)(F)F)ccc3c2CC[C@H]3Oc2ccc([C@H](CC(=O)O)c3ccon3)cc2)CC1
- Activity ([8]; filed as agonist): 55.1%

Compound: O=C(O)CC1COc2cc(OCc3cccc(OCc4ccccc4)c3)ccc21 (configuration not stated)
- Activity [4]: 23.5%

Compound: Cc1ccc(O[C@H]2CCOC2)cc1-c1cccc2c1CC[C@H]2Oc1ccc(OCC(=O)O)cc1
- Activity ([2]; filed as agonist): 51.7%

Compound: O=C(O)C[C@@H](c1ccc(O[C@@H]2CCc3c2ccc(C(F)(F)F)c3CN2CCCCCC2)cc1)c1ccon1
- Activity ([8]; filed as agonist): 48.2%

The next lines start with the values.

- EC50 [1]: 13200 nM
Compound: Cc1cccc(C(=O)Nc2ccc(CC(=O)O)cc2)c1

- EC50 [3]: 1390 nM
Compound: Cc1ccccc1-c1cccc(COc2ccc(OCC(=O)O)c(F)c2)c1

- Activity [4]: 23.7%
Compound: Cc1ccc(S(=O)(=O)Nc2cccc(COc3ccc4c(c3)OCC4CC(=O)O)c2)cc1 (configuration not stated)

- EC50 [6]: 72.2 nM
Compound: [2H]C([2H])(Cc1ccc(OCc2cccc(-c3c(C)cc(OCCCS(C)(=O)=O)cc3C)c2)cc1)C(=O)O

- fold change (FC) [7]: 2
Compound: COc1ccc2[nH]c(SCC(=O)Nc3ccc(OCC(=O)O)cc3)nc2c1

- Activity ([4]; filed as agonist): 50.4%
Compound: O=C(O)CC1COc2cc(OCc3cccc(NC(=O)c4coc5ccccc45)c3)ccc21 (configuration not stated)

- EC50 [9]: 48 nM
Compound: O=C(O)CCc1ccc(NCc2cccc(Oc3ccccc3)c2)cc1 [GW9508]

- EC50 [6]: 42.7 nM
Compound: [2H]C([2H])(Cc1ccc(OCc2cccc(-c3c(C)cccc3C)c2)cc1)C(=O)O

- fold change (FC) [7]: 2
Compound: O=C(O)COc1ccc(NC(=O)CSc2nc3ccccc3[nH]2)cc1

- EC50 [10]: 100000 nM
Compound: O=C(O)CCc1ccc(OCc2ccc3ccccc3n2)cc1

- EC50 [6]: 19.1 nM
Compound: [2H]C([2H])(Cc1ccc(OCc2cccc(-c3ccccc3C)c2)cc1)C(=O)O
